What was measured:
[1] = system: HIV-1 mediated cell-cell fusion (R8 virus); conditions: mediated cell-cell fusion (R8 virus)
M-tropic (BAL) HIV-1 = conditions: M-tropic (BAL)
T-tropic (R8) HIV-1 = conditions: T-tropic (R8)

Compound | IC50 [1] [nM] | IC50 (M-tropic (BAL) HIV-1) [nM] | IC50 (T-tropic (R8) HIV-1) [nM]
CC(C)C[C@H](NC(=O)[C@H](CO)NC(=O)[C@H](C)NC(=O)[C@H](Cc1c[nH]c2ccccc12)NC(=O)[C@H](CCCCN)NC(=O)[C@H](CC(=O)O)NC(=O)[C@H](CC(C)C)NC(=O)[C@H](CCC(=O)O)NC(=O)[C@H](CC(C)C)NC(=O)[C@H](CC(C)C)NC(=O)[C@H](CCC(=O)O)NC(=O)[C@H](CCC(N)=O)NC(=O)[C@H](CCC(=O)O)NC(=O)[C@H](CC(N)=O)NC(=O)[C@H](CCCCN)NC(=O)[C@H](CCC(=O)O)NC(=O)[C@H](CCC(N)=O)NC(=O)[C@H](CCC(N)=O)NC(=O)[C@H](CC(N)=O)NC(=O)[C@H](CCC(N)=O)NC(=O)[C@@H]1CSC(C(=O)NCCCC[C@H](NC(=O)CCNC(=O)C2N[C@H](C(=O)N[C@@H](CCC(N)=O)C(=O)N[C@@H](CC(N)=O)C(=O)N[C@@H](CCC(N)=O)C(=O)N[C@@H](CCC(N)=O)C(=O)N[C@@H](CCC(=O)O)C(=O)N[C@@H](CCCCN)C(=O)N[C@@H](CC(N)=O)C(=O)N[C@@H](CCC(=O)O)C(=O)N[C@@H](CCC(N)=O)C(=O)N[C@@H](CCC(=O)O)C(=O)N[C@@H](CC(C)C)C(=O)N[C@@H](CC(C)C)C(=O)N[C@@H](CCC(=O)O)C(=O)N[C@@H](CC(C)C)C(=O)N[C@@H](CC(=O)O)C(=O)N[C@@H](CCCCN)C(=O)N[C@@H](Cc3c[nH]c4ccccc34)C(=O)N[C@@H](C)C(=O)N[C@@H](CO)C(=O)N[C@@H](CC(C)C)C(=O)N[C@@H](Cc3c[nH]c4ccccc34)C(=O)N[C@@H](CC(N)=O)C(=O)N[C@@H](Cc3c[nH]c4ccccc34)C(=O)N[C@@H](Cc3ccccc3)C(=O)O)CS2)C(=O)N[C@@H](CCCCNC(=O)CNC(=O)C2N[C@H](C(=O)N[C@@H](CCC(N)=O)C(=O)N[C@@H](CC(N)=O)C(=O)N[C@@H](CCC(N)=O)C(=O)N[C@@H](CCC(N)=O)C(=O)N[C@@H](CCC(=O)O)C(=O)N[C@@H](CCCCN)C(=O)N[C@@H](CC(N)=O)C(=O)N[C@@H](CCC(=O)O)C(=O)N[C@@H](CCC(N)=O)C(=O)N[C@@H](CCC(=O)O)C(=O)N[C@@H](CC(C)C)C(=O)N[C@@H](CC(C)C)C(=O)N[C@@H](CCC(=O)O)C(=O)N[C@@H](CC(C)C)C(=O)N[C@@H](CC(=O)O)C(=O)N[C@@H](CCCCN)C(=O)N[C@@H](Cc3c[nH]c4ccccc34)C(=O)N[C@@H](C)C(=O)N[C@@H](CO)C(=O)N[C@@H](CC(C)C)C(=O)N[C@@H](Cc3c[nH]c4ccccc34)C(=O)N[C@@H](CC(N)=O)C(=O)N[C@@H](Cc3c[nH]c4ccccc34)C(=O)N[C@@H](Cc3ccccc3)C(=O)O)CS2)C(=O)N[C@@H](CO)C(=O)N[C@@H](CO)C(=O)N[C@@H](C)C(N)=O)N1)C(=O)N[C@@H](Cc1c[nH]c2ccccc12)C(=O)N[C@@H](CC(N)=O)C(=O)N[C@@H](Cc1c[nH]c2ccccc12)C(=O)N[C@@H](Cc1ccccc1)C(=O)O (stereo partly drawn) [Compound 3α-C24] | 290 | 36 | 310
CC(C)C[C@H](NC(=O)[C@H](CO)NC(=O)[C@H](C)NC(=O)[C@H](Cc1c[nH]c2ccccc12)NC(=O)[C@H](CCCCN)NC(=O)[C@H](CC(=O)O)NC(=O)[C@H](CC(C)C)NC(=O)[C@H](CCC(=O)O)NC(=O)[C@H](CC(C)C)NC(=O)[C@H](CC(C)C)NC(=O)[C@H](CCC(=O)O)NC(=O)[C@H](CCC(N)=O)NC(=O)[C@H](CCC(=O)O)NC(=O)[C@H](CC(N)=O)NC(=O)[C@H](CCCCN)NC(=O)[C@H](CCC(=O)O)NC(=O)[C@H](CCC(N)=O)NC(=O)[C@H](CCC(N)=O)NC(=O)[C@H](CC(N)=O)NC(=O)[C@H](CCC(N)=O)NC(=O)[C@@H]1CSC(C(=O)NCCCC[C@H](NC(=O)CCNC(=O)C2N[C@H](C(=O)N[C@@H](CCC(N)=O)C(=O)N[C@@H](CC(N)=O)C(=O)N[C@@H](CCC(N)=O)C(=O)N[C@@H](CCC(N)=O)C(=O)N[C@@H](CCC(=O)O)C(=O)N[C@@H](CCCCN)C(=O)N[C@@H](CC(N)=O)C(=O)N[C@@H](CCC(=O)O)C(=O)N[C@@H](CCC(N)=O)C(=O)N[C@@H](CCC(=O)O)C(=O)N[C@@H](CC(C)C)C(=O)N[C@@H](CC(C)C)C(=O)N[C@@H](CCC(=O)O)C(=O)N[C@@H](CC(C)C)C(=O)N[C@@H](CC(=O)O)C(=O)N[C@@H](CCCCN)C(=O)N[C@@H](Cc3c[nH]c4ccccc34)C(=O)N[C@@H](C)C(=O)N[C@@H](CO)C(=O)N[C@@H](CC(C)C)C(=O)N[C@@H](Cc3c[nH]c4ccccc34)C(=O)N[C@@H](CC(N)=O)C(=O)N[C@@H](Cc3c[nH]c4ccccc34)C(=O)N[C@@H](Cc3ccccc3)C(=O)O)CS2)C(=O)N[C@@H](CO)C(=O)N[C@@H](CO)C(=O)N[C@@H](C)C(N)=O)N1)C(=O)N[C@@H](Cc1c[nH]c2ccccc12)C(=O)N[C@@H](CC(N)=O)C(=O)N[C@@H](Cc1c[nH]c2ccccc12)C(=O)N[C@@H](Cc1ccccc1)C(=O)O (stereo partly drawn) [Compound 2α-C24] | 38 | 67 | 80
CC[C@H](C)[C@H](NC(=O)[C@H](CC(C)C)NC(=O)[C@H](CO)NC(=O)[C@H](Cc1c[nH]cn1)NC(=O)[C@@H](NC(=O)[C@H](CC(C)C)NC(=O)[C@H](CO)NC(=O)[C@@H](NC(=O)[C@H](Cc1ccc(O)cc1)NC(=O)[C@H](CC(N)=O)NC(=O)[C@H](CC(N)=O)NC(=O)[C@@H](NC(=O)[C@@H]1CSC(C(=O)NCCCC[C@H](NC(=O)CCNC(=O)C2N[C@H](C(=O)N[C@H](C(=O)N[C@@H](CC(N)=O)C(=O)N[C@@H](CC(N)=O)C(=O)N[C@@H](Cc3ccc(O)cc3)C(=O)N[C@H](C(=O)N[C@@H](CO)C(=O)N[C@@H](CC(C)C)C(=O)N[C@H](C(=O)N[C@@H](Cc3c[nH]cn3)C(=O)N[C@@H](CO)C(=O)N[C@@H](CC(C)C)C(=O)N[C@H](C(=O)N[C@@H](CCC(=O)O)C(=O)N[C@@H](CCC(=O)O)C(=O)N[C@@H](CO)C(=O)N[C@@H](CCC(N)=O)C(=O)N[C@@H](CC(N)=O)C(=O)N[C@@H](CCC(N)=O)C(=O)N[C@@H](CCC(N)=O)C(=O)N[C@@H](CCC(=O)O)C(=O)N[C@@H](CCCCN)C(=O)N[C@@H](CC(N)=O)C(=O)N[C@@H](CCC(=O)O)C(=O)N[C@@H](CCC(N)=O)C(=O)N[C@@H](CCC(=O)O)C(=O)N[C@@H](CC(C)C)C(=O)N[C@@H](CC(C)C)C(=O)O)[C@@H](C)CC)[C@@H](C)CC)[C@@H](C)O)[C@@H](C)CC)CS2)C(=O)N[C@@H](CCCCNC(=O)CNC(=O)C2N[C@H](C(=O)N[C@H](C(=O)N[C@@H](CC(N)=O)C(=O)N[C@@H](CC(N)=O)C(=O)N[C@@H](Cc3ccc(O)cc3)C(=O)N[C@H](C(=O)N[C@@H](CO)C(=O)N[C@@H](CC(C)C)C(=O)N[C@H](C(=O)N[C@@H](Cc3c[nH]cn3)C(=O)N[C@@H](CO)C(=O)N[C@@H](CC(C)C)C(=O)N[C@H](C(=O)N[C@@H](CCC(=O)O)C(=O)N[C@@H](CCC(=O)O)C(=O)N[C@@H](CO)C(=O)N[C@@H](CCC(N)=O)C(=O)N[C@@H](CC(N)=O)C(=O)N[C@@H](CCC(N)=O)C(=O)N[C@@H](CCC(N)=O)C(=O)N[C@@H](CCC(=O)O)C(=O)N[C@@H](CCCCN)C(=O)N[C@@H](CC(N)=O)C(=O)N[C@@H](CCC(=O)O)C(=O)N[C@@H](CCC(N)=O)C(=O)N[C@@H](CCC(=O)O)C(=O)N[C@@H](CC(C)C)C(=O)N[C@@H](CC(C)C)C(=O)O)[C@@H](C)CC)[C@@H](C)CC)[C@@H](C)O)[C@@H](C)CC)CS2)C(=O)N[C@@H](CO)C(=O)N[C@@H](CO)C(=O)N[C@@H](C)C(N)=O)N1)[C@@H](C)CC)[C@@H](C)O)[C@@H](C)CC)C(=O)N[C@@H](CCC(=O)O)C(=O)N[C@@H](CCC(=O)O)C(=O)N[C@@H](CO)C(=O)N[C@@H](CCC(N)=O)C(=O)N[C@@H](CC(N)=O)C(=O)N[C@@H](CCC(N)=O)C(=O)N[C@@H](CCC(N)=O)C(=O)N[C@@H](CCC(=O)O)C(=O)N[C@@H](CCCCN)C(=O)N[C@@H](CC(N)=O)C(=O)N[C@@H](CCC(=O)O)C(=O)N[C@@H](CCC(N)=O)C(=O)N[C@@H](CCC(=O)O)C(=O)N[C@@H](CC(C)C)C(=O)N[C@@H](CC(C)C)C(=O)O (stereo partly drawn) [Compound 3α-C27] | 2.8 | 0.5 | 380
CC[C@H](C)[C@H](NC(=O)[C@@H]1CSC(C(=O)NCCCC[C@H](NC(=O)CCNC(=O)C2N[C@H](C(=O)N[C@H](C(=O)N[C@@H](CCC(=O)O)C(=O)N[C@@H](CCC(=O)O)C(=O)N[C@@H](CO)C(=O)N[C@@H](CCC(N)=O)C(=O)N[C@@H](CC(N)=O)C(=O)N[C@@H](CCC(N)=O)C(=O)N[C@@H](CCC(N)=O)C(=O)N[C@@H](CCC(=O)O)C(=O)N[C@@H](CCCCN)C(=O)N[C@@H](CC(N)=O)C(=O)N[C@@H](CCC(=O)O)C(=O)N[C@@H](CCC(N)=O)C(=O)N[C@@H](CCC(=O)O)C(=O)N[C@@H](CC(C)C)C(=O)N[C@@H](CC(C)C)C(=O)O)[C@@H](C)CC)CS2)C(=O)N[C@@H](CCCCNC(=O)CNC(=O)C2N[C@H](C(=O)N[C@H](C(=O)N[C@@H](CCC(=O)O)C(=O)N[C@@H](CCC(=O)O)C(=O)N[C@@H](CO)C(=O)N[C@@H](CCC(N)=O)C(=O)N[C@@H](CC(N)=O)C(=O)N[C@@H](CCC(N)=O)C(=O)N[C@@H](CCC(N)=O)C(=O)N[C@@H](CCC(=O)O)C(=O)N[C@@H](CCCCN)C(=O)N[C@@H](CC(N)=O)C(=O)N[C@@H](CCC(=O)O)C(=O)N[C@@H](CCC(N)=O)C(=O)N[C@@H](CCC(=O)O)C(=O)N[C@@H](CC(C)C)C(=O)N[C@@H](CC(C)C)C(=O)O)[C@@H](C)CC)CS2)C(=O)N[C@@H](CO)C(=O)N[C@@H](CO)C(=O)N[C@@H](C)C(N)=O)N1)C(=O)N[C@@H](CCC(=O)O)C(=O)N[C@@H](CCC(=O)O)C(=O)N[C@@H](CO)C(=O)N[C@@H](CCC(N)=O)C(=O)N[C@@H](CC(N)=O)C(=O)N[C@@H](CCC(N)=O)C(=O)N[C@@H](CCC(N)=O)C(=O)N[C@@H](CCC(=O)O)C(=O)N[C@@H](CCCCN)C(=O)N[C@@H](CC(N)=O)C(=O)N[C@@H](CCC(=O)O)C(=O)N[C@@H](CCC(N)=O)C(=O)N[C@@H](CCC(=O)O)C(=O)N[C@@H](CC(C)C)C(=O)N[C@@H](CC(C)C)C(=O)O (stereo partly drawn) [Compound 3α-C16] | > 1000 | 124 | > 1000

Source: patent US20050113292A1 (priority 2003, published 2005)
